Experimental data: the supplement of paper PMC11208160

assay: recombinant UMI read abundance after kanamycin selection (control-corrected) (log10(CPM+1)); higher = more efficient recombination; extreme values may be limits of the assay; sequences stand for … in AGTGCAGAGAAAATCGGCCAGTTTTCTCTGCCTGCAGTCCGCATGCCGTGGGACCCCTTGGGTTCTAACCTGTTGCCTAGATTTATGCAGCGGACTGCCTTTCTCCCAAAGTGATAAACCGG…AGGTTGGTTTCACT; site = the 11-nt donor
In short: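 Values are reported as log10(CPM+1), obtained by converting sequencing counts to CPM, averaging replicates and scaling by control-derived factors. The counts came from recombinant UMIs amplified by PCR across the donor–target junction. These UMIs came from a pooled Escherichia coli screen of donor and donor-binding-loop pairs for the IS621 bridge recombinase, plated with IPTG (0.07 mM) plus kanamycin or left unselected, in two replicates each.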
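Note: IS621 bridge recombinase in Escherichia coli cells against a fixed T5 target plasmid.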

Row | Sequence | recombinant UMI read abundance (log10)
1 | CTGCAAGCATGGACCGGTTTTCCCGGTAATCCGTATTTGTA (site CTGCAAGCTTA) | 1.8
2 | CTGCCATCATGGACCGGTTTTCCCGGTAATCCGTATTTGGT (site CTGCCATCTAC) | 0
3 | CTGCCCTCATGGACCGGTTTTCCCGGTAATCCGTATTTGTT (site CTGCCCTCTAA) | 2.18
4 | CTGCGTACATGGACCGGTTTTCCCGGTAATCCGTATTTGAT (site CTGCGTACTAT) | 1.81
5 | CTGCGTTCATGGACCGGTTTTCCCGGTAATCCGTATTTGAG (site CTGCGTTCTCT) | 2.26
6 | CTGCTAACATGGACCGGTTTTCCCGGTAATCCGTATTTGCT (site CTGCTAACTAG) | 2.26
7 | CTGCTAACATGGACCGGTTTTCCCGGTAATCCGTATTTGCT (site CTGCTACCTAG) | 0
8 | CTGCTAACATGGACCGGTTTTCCCGGTAATCCGTATTTGCT (site CTGCTAGCTAG) | 0.313
9 | CTGCTAACATGGACCGGTTTTCCCGGTAATCCGTATTTGCT (site CTGCTATCTAG) | 0.474
10 | CTGCTACCATGGACCGGTTTTCCCGGTAATCCGTATTTGCA (site CTGCTACCTAG) | 0.00394
11 | CTGCTACCATGGACCGGTTTTCCCGGTAATCCGTATTTGCA (site CTGCTACCTCG) | 0.00238
12 | CTGCTACCATGGACCGGTTTTCCCGGTAATCCGTATTTGCA (site CTGCTACCTGG) | 0
13 | CTGCTACCATGGACCGGTTTTCCCGGTAATCCGTATTTGCA (site CTGCTACCTTG) | 0
14 | CTGCTACCATGGACCGGTTTTCCCGGTAATCCGTATTTGGG (site CTGCTACCTCC) | 0.0335
15 | CTGCTACCATGGACCGGTTTTCCCGGTAATCCGTATTTGGT (site CTGCTACCTAA) | 0.00859
16 | CTGCTACCATGGACCGGTTTTCCCGGTAATCCGTATTTGGT (site CTGCTACCTAC) | 0.00854
17 | CTGCTACCATGGACCGGTTTTCCCGGTAATCCGTATTTGGT (site CTGCTACCTAG) | 0
18 | CTGCTACCATGGACCGGTTTTCCCGGTAATCCGTATTTGGT (site CTGCTACCTAT) | 0.00703
19 | CTGCTGACATGGACCGGTTTTCCCGGTAATCCGTATTTGAT (site CTGCTGACTAT) | 2.13
20 | CTGCTTCCATGGACCGGTTTTCCCGGTAATCCGTATTTGGT (site CTGCTTCCTAC) | 0.0707
21 | CTGGAAACATGGACCGGTTTTCCCGGTAATCCGTATTTGAA (site CTGGAAACTTA) | 0.0938
22 | CTGGAAACATGGACCGGTTTTCCCGGTAATCCGTATTTGAA (site CTGGAAACTTC) | 0.988
23 | CTGGAAACATGGACCGGTTTTCCCGGTAATCCGTATTTGAA (site CTGGAAACTTG) | 0

Row | Sequence | recombinant UMI read abundance (log10)
24 | CTGGAAACATGGACCGGTTTTCCCGGTAATCCGTATTTGAA (site CTGGAAACTTT) | 2.09
25 | CTGGAAACATGGACCGGTTTTCCCGGTAATCCGTATTTGCA (site ATGGAAACTTG) | 0
26 | CTGGAAACATGGACCGGTTTTCCCGGTAATCCGTATTTGCA (site CAGGAAACTTG) | 1.85
27 | CTGGAAACATGGACCGGTTTTCCCGGTAATCCGTATTTGCA (site CCGGAAACTTG) | 1.93
28 | CTGGAAACATGGACCGGTTTTCCCGGTAATCCGTATTTGCA (site CGGGAAACTTG) | 0
29 | CTGGAAACATGGACCGGTTTTCCCGGTAATCCGTATTTGCA (site CTAGAAACTTG) | 2.19
30 | CTGGAAACATGGACCGGTTTTCCCGGTAATCCGTATTTGCA (site CTCGAAACTTG) | 0
31 | CTGGAAACATGGACCGGTTTTCCCGGTAATCCGTATTTGCA (site CTGAAAACTTG) | 0.744
32 | CTGGAAACATGGACCGGTTTTCCCGGTAATCCGTATTTGCA (site CTGCAAACTTG) | 0
33 | CTGGAAACATGGACCGGTTTTCCCGGTAATCCGTATTTGCA (site CTGGAAACTAG) | 0
34 | CTGGAAACATGGACCGGTTTTCCCGGTAATCCGTATTTGCA (site CTGGAAACTCG) | 0.843
35 | CTGGAAACATGGACCGGTTTTCCCGGTAATCCGTATTTGCA (site CTGGAAACTGG) | 0
36 | CTGGAAACATGGACCGGTTTTCCCGGTAATCCGTATTTGCA (site CTGGAAACTTA) | 1.34
37 | CTGGAAACATGGACCGGTTTTCCCGGTAATCCGTATTTGCA (site CTGGAAACTTC) | 0
38 | CTGGAAACATGGACCGGTTTTCCCGGTAATCCGTATTTGCA (site CTGGAAACTTG) | 2.2
39 | CTGGAAACATGGACCGGTTTTCCCGGTAATCCGTATTTGCA (site CTGGAAACTTT) | 2.16
40 | CTGGAAACATGGACCGGTTTTCCCGGTAATCCGTATTTGCA (site CTGGAACCTTG) | 0.0058
41 | CTGGAAACATGGACCGGTTTTCCCGGTAATCCGTATTTGCA (site CTGGAAGCTTG) | 1.51
42 | CTGGAAACATGGACCGGTTTTCCCGGTAATCCGTATTTGCA (site CTGGAATCTTG) | 1.21
43 | CTGGAAACATGGACCGGTTTTCCCGGTAATCCGTATTTGCA (site CTGGACACTTG) | 0.00329
44 | CTGGAAACATGGACCGGTTTTCCCGGTAATCCGTATTTGCA (site CTGGAGACTTG) | 1.43
45 | CTGGAAACATGGACCGGTTTTCCCGGTAATCCGTATTTGCA (site CTGGATACTTG) | 0.526
46 | CTGGAAACATGGACCGGTTTTCCCGGTAATCCGTATTTGCA (site CTGGCAACTTG) | 0.416

Row | Sequence | recombinant UMI read abundance (log10)
47 | CTGGAAACATGGACCGGTTTTCCCGGTAATCCGTATTTGCA (site CTGGGAACTTG) | 0.596
48 | CTGGAAACATGGACCGGTTTTCCCGGTAATCCGTATTTGCA (site CTGGTAACTTG) | 0.00624
49 | CTGGAAACATGGACCGGTTTTCCCGGTAATCCGTATTTGCA (site CTGTAAACTTG) | 0.123
50 | CTGGAAACATGGACCGGTTTTCCCGGTAATCCGTATTTGCA (site CTTGAAACTTG) | 0.578
51 | CTGGAAACATGGACCGGTTTTCCCGGTAATCCGTATTTGCA (site GTGGAAACTTG) | 0.00967
52 | CTGGAAACATGGACCGGTTTTCCCGGTAATCCGTATTTGCA (site TTGGAAACTTG) | 0
53 | CTGGAAACATGGACCGGTTTTCCCGGTAATCCGTATTTGCC (site CTGGAAACTAG) | 0
54 | CTGGAAACATGGACCGGTTTTCCCGGTAATCCGTATTTGCC (site CTGGAAACTCG) | 0
55 | CTGGAAACATGGACCGGTTTTCCCGGTAATCCGTATTTGCC (site CTGGAAACTGG) | 0
56 | CTGGAAACATGGACCGGTTTTCCCGGTAATCCGTATTTGCC (site CTGGAAACTTG) | 0.22
57 | CTGGAAACATGGACCGGTTTTCCCGGTAATCCGTATTTGCG (site CTGGAAACTAG) | 0
58 | CTGGAAACATGGACCGGTTTTCCCGGTAATCCGTATTTGCG (site CTGGAAACTCG) | 2.37
59 | CTGGAAACATGGACCGGTTTTCCCGGTAATCCGTATTTGCG (site CTGGAAACTGG) | 0
60 | CTGGAAACATGGACCGGTTTTCCCGGTAATCCGTATTTGCG (site CTGGAAACTTG) | 1.72
61 | CTGGAAACATGGACCGGTTTTCCCGGTAATCCGTATTTGGT (site CTGGAAACTAC) | 1.92
62 | CTGGAATCATGGACCGGTTTTCCCGGTAATCCGTATTTGCA (site CTGGAAACTTG) | 1.56
63 | CTGGAATCATGGACCGGTTTTCCCGGTAATCCGTATTTGCA (site CTGGAACCTTG) | 0
64 | CTGGAATCATGGACCGGTTTTCCCGGTAATCCGTATTTGCA (site CTGGAAGCTTG) | 0
65 | CTGGAATCATGGACCGGTTTTCCCGGTAATCCGTATTTGCA (site CTGGAATCTTG) | 2.19
66 | CTGGCATCATGGACCGGTTTTCCCGGTAATCCGTATTTGGC (site CTGGCATCTGC) | 2.75
67 | CTGGCGTCATGGACCGGTTTTCCCGGTAATCCGTATTTGAG (site CTGGCGTCTCT) | 0.929
68 | CTGGGAACATGGACCGGTTTTCCCGGTAATCCGTATTTGCA (site CTGGAAACTTG) | 1.87
